In one experiment the target is T1, β5c (Homo sapiens, UniProt P20618+P28074).
T1 construct: protease activity associated with the proteasome complex in cultured cells; endogenous in cells; host or cells: Ramos cells
The experiment is described as follows: Cell-Based Proteasome Activity/Selectivity Assay (Ramos cells), substrate (WLA)2Rh110. As to conditions: highest concentration tested 20 μM. From the text: (§1) Cell-Based Proteasome Activity/Selectivity Assay
(§2) The Cell-Based Proteasome subunit activity/selectivity assay was a panel of 5 fluorogenic assays that independently measured the activity of β5c or β5i (chymotrypsin-like activity), β2c/2i (trypsin-like), and β1c or β1i (caspase-like) protease activity associated with the proteasome complex in cultured cells. Specifically, the following substrates were used for respective subunit activities: β1i: (PAL)2Rh110, β1c: (LLE)2 Rh110, β2c/2i: (KQL)2Rh110, β5c: (WLA)2Rh110, β5i: (ANW)2Rh110. The following procedure was followed:
(§3) Cell preparation: Plated 25 μl of Ramos cells (2×10^6/ml in DPBS) into half area plate (PerkinElmer Cat 6005569) to final 5×10^4 cells/well. Added 0.5 μl of 100×4-fold serial diluted test compounds or DMSO to each well. Highest concentration of compound tested was 20 μM, thus compound serial dilution started from […]. Incubated for 30 minutes at 37° C. Then equilibrated at room temperature for 15 minutes. Added 25 μl of 2× reaction mix consisting of 0.025% digitonin, 20 μM of each substrates and 0.5M sucrose in DPBS. Shaked for one minute @ 700 rpm. Incubated for 120 min at room temperature. Then read the plates with an Envision multilabel plate reader (PerkinElmer) with 500 nm excitation/519 nm emission.

The target of a further experiment is T2, β1c (Homo sapiens, UniProt P28072+Q99436).
T2 construct: protease activity associated with the proteasome complex in cultured cells; endogenous in cells; host or cells: Ramos cells
The experiment is described as follows: Cell-Based Proteasome Activity/Selectivity Assay (Ramos cells), substrate (LLE)2 Rh110. As to conditions: highest concentration tested 20 μM.
Source text: as §1, §2, §3

Another experiment concerns the target T3, β1i (Homo sapiens, UniProt P28065+P40306).
T3 construct: protease activity associated with the proteasome complex in cultured cells; endogenous in cells; host or cells: Ramos cells
Put plainly: Cell-Based Proteasome Activity/Selectivity Assay (Ramos cells), substrate (PAL)2Rh110. As to conditions: highest concentration tested 20 μM.
Source text: as §1, §2, §3

Experiment [1] relates to IP10 level in PBMCs stimulated with CpG Type A. The experiment is described as follows: PBMC IP-10 Assay. Type of experiment: cell-based. Particulars: CpG Type A 2.5 μM. Here is the method:
PBMCs were isolated from whole blood as follows: Blood was collected in a sterile environment in heparinized tubes. Blood was diluted with an equal volume PBS/2% FCS and 30 ml of this mixture was added to ACCUSPIN tubes containing 15 ml Histopaque-1077 already centrifuged at 800 g for 30 seconds and warmed up at room temperature. The tubes were then centrifuged at 800 g for 20 minutes at room temperature with no brake. The mononuclear band, just above the polyethylene frit, was removed by Pasteur pipet. These mononuclear cells were washed three times with sterile PBS, counted, and resuspended in RPMI 1640 supplemented with 10% heat inactivated fetal calf serum, 10 mM HEPES, 1 mM sodium pyruvate, penicillin (50 U/ml), streptomycin (50 μg/ml) and glutamine (2 mM) to approximately 1.5×10^6/ml. Approximately 2×10^5 cells/well were plated in 96 well tissue culture plates (BD Falcon 353072), and preincubated 60 mi/37° C. with a titration of compounds, in a final concentration of 1% DMSO. Cells were then stimulated with CpG Type A (Invivogen, Cat #tlrl-2216; ODN 2216) at a final concentration of 2.5 μM. Cells were incubated overnight, and supernatants were removed. PBMC viability of cells remaining in the well was measured with ATPlite luminescence assay (Perkin-Elmer) per the manufacturer's instructions. Luminescence was measured on the Perkin-Elmer Envision, using the luminescence filter. IP10 level was measured with CXCL10/IP10 AlphaLISA kit (Perkin-Elmer) per the manufacturer's instructions, except halving all volumes. Fluorescence was measured on the Envision Multilabel plate reader, using the AlphaScreen standard settings.

The target of a further experiment is T4, β5i (Homo sapiens, UniProt P20618+P28062).
T4 construct: protease activity associated with the proteasome complex in cultured cells; endogenous in cells; host or cells: Ramos cells
The experiment is described as follows: Cell-Based Proteasome Activity/Selectivity Assay (Ramos cells), substrate (ANW)2Rh110. Particulars: highest concentration tested 20 μM, read-out: Ic50 ramos:ac-(anw)2-r110.
Source text: as §1, §2, §3

The test system of the next experiment is β2c/2i. The experiment is described as follows: Cell-Based Proteasome Activity/Selectivity Assay (Ramos cells), substrate (KQL)2Rh110. As to conditions: highest concentration tested 20 μM.
Source text: as §1, §2, §3

The structures appear in SMILES notation.

For orientation: IC50 means the concentration needed to halve the response being measured. What is called EC50 is the concentration giving half of the maximal effect. Lower therefore signals higher potency in that assay. For `COc1ccc(C[C@H](NC(=O)[C@@H](NC(=O)C2Cc3ccccc3C2)C2CC2)C(=O)N[C@@H](Cc2ccccc2)C(=O)C(=O)NCc2ccccc2)cc1` [Example 26, Indan-2-carboxylic acid {(S)-[(S)-1-((S)-1-benzyl-2-benzylcarbamoyl-2-oxo-ethylcarbamoyl)-2-(4-methoxy-phenyl)-ethylcarbamoyl]-cyclopropyl-methyl}-amide], the IC50 on β5c turned out to be 15 nM; against β1c, 2380 nM; against β1i, 181 nM; on β5i it was 4 nM; in the experiment with β2c/2i, 380 nM. The compound also registered an EC50 in experiment [1] of 203 nM.

For the compound `COc1ccc(C[C@H](NC(=O)C2(NC(=O)C3Cc4ccccc4C3)CC2)C(=O)N[C@@H](Cc2ccccc2)C(=O)C(=O)NCc2ccccc2)cc1` [Example 27, Indan-2-carboxylic acid {1-[(S)-1-((S)-1-benzyl-2-benzylcarbamoyl-2-oxo-ethylcarbamoyl)-2-(4-methoxy-phenyl)-ethylcarbamoyl]-cyclopropyl}-amide], the IC50 at β5c is 4520 nM; against β1c it was 12900 nM; against β1i, 5060 nM; at β5i it was 40 nM; with β2c/2i it was > 20000 nM. In addition, the EC50 in experiment [1] was 4870 nM.

Turning to `COc1ccc(C[C@H](NC(=O)C2(NC(=O)OCc3ccccc3)CC2)C(=O)N[C@@H](Cc2ccccc2)C(=O)C(=O)NCc2ccccc2)cc1` [Example 28, {1-[(S)-1-((S)-1-Benzyl-2-benzylcarbamoyl-2-oxo-ethylcarbamoyl)-2-(4-methoxy-phenyl)-ethylcarbamoyl]-cyclopropyl}-carbamic acid benzyl ester], the IC50 is 5110 nM at β5c; > 20000 nM against β1c; 4740 nM on β1i; 294 nM at β5i; > 20000 nM with β2c/2i. The compound also displayed an EC50 in experiment [1] of 2790 nM.

Take `COc1ccc(C[C@H](NC(=O)[C@H](C)NC(=O)c2cnccn2)C(=O)N[C@@H](Cc2ccccc2)C(=O)C(=O)NCc2ccccc2)cc1` [Example 29, Pyrazine-2-carboxylic acid {(S)-1-[(S)-1-((S)-1-benzyl-2-benzylcarbamoyl-2-oxo-ethylcarbamoyl)-2-(4-methoxy-phenyl)-ethylcarbamoyl]-ethyl}-amide]: the IC50 came out at 2060 nM against β5c; 5620 nM against β1c; 218 nM on β1i; 275 nM at β5i; 11900 nM in the experiment with β2c/2i. In addition, the half-maximal effective concentration (EC50) in experiment [1] amounted to 4170 nM.

As for `C[C@H](NC(=O)c1ccnn1C)C(=O)N[C@@H](Cc1c[nH]c2ccccc12)C(=O)N[C@@H](Cc1ccccc1)C(=O)C(=O)NCc1ccccc1` [Example 30, 2-Methyl-2H-pyrazole-3-carboxylic acid {(S)-1-[(S)-1-((S)-1-benzyl-2-benzylcarbamoyl-2-oxo-ethylcarbamoyl)-2-(1H-indol-3-yl)-ethylcarbamoyl]-ethyl}-amide], the 50% inhibitory concentration (IC50) against β5c amounted to 2480 nM; against β1c, 12500 nM; on β1i, 569 nM; at β5i, 47 nM; in the experiment on β2c/2i, 10000 nM. Also, it took 4090 nM to reach a half-maximal effect in experiment [1] (EC50).

Regarding `CNC(=O)C(=O)[C@H](Cc1ccccc1)NC(=O)[C@H](Cc1c[nH]c2ccccc12)NC(=O)[C@H](C)NC(=O)OCc1ccccc1` [Example 31, {(S)-1-[(S)-1-((S)-1-Benzyl-2-methylcarbamoyl-2-oxo-ethylcarbamoyl)-2-(1H-indol-3-yl)-ethylcarbamoyl]-ethyl}-carbamic acid benzyl ester], the IC50 is 738 nM against β5c; 13100 nM against β1c; 244 nM against β1i; 34 nM on β5i; > 20000 nM in the experiment on β2c/2i. In addition, the EC50 in experiment [1] amounted to 1180 nM.

In the case of `C[C@H](NC(=O)OCc1ccccc1)C(=O)N[C@@H](Cc1c[nH]c2ccccc12)C(=O)N[C@@H](Cc1ccccc1)C(=O)C(=O)NC1CC1` [Example 32, {(S)-1-[(S)-1-((S)-1-Benzyl-2-cyclopropylcarbamoyl-2-oxo-ethylcarbamoyl)-2-(1H-indol-3-yl)-ethylcarbamoyl]-ethyl}-carbamic acid benzyl ester], the IC50 is 365 nM at β5c; 12200 nM against β1c; 266 nM on β1i; 11 nM on β5i; > 20000 nM in the experiment with β2c/2i. Moreover, the 50% effective concentration (EC50) in experiment [1] is 940 nM.

With `COCCNC(=O)C(=O)[C@H](Cc1ccccc1)NC(=O)[C@H](Cc1c[nH]c2ccccc12)NC(=O)[C@H](C)NC(=O)OCc1ccccc1` [Example 33, {(S)-1-[(S)-1-[(S)-1-Benzyl-2-(2-methoxy-ethylcarbamoyl)-2-oxo-ethylcarbamoyl]-2-(1H-indol-3-yl)-ethylcarbamoyl]-ethyl}-carbamic acid benzyl ester], the half-inhibitory concentration (IC50) at β5c was 597 nM; against β1c, 17500 nM; on β1i, 205 nM; at β5i, 14 nM; in the experiment with β2c/2i it was > 20000 nM. The same compound displayed a concentration for a half-maximal effect (EC50) in experiment [1] of 1380 nM.

Turning to `C[C@H](NC(=O)OCc1ccccc1)C(=O)N[C@@H](Cc1c[nH]c2ccccc12)C(=O)N[C@@H](Cc1ccccc1)C(=O)C(=O)NCc1ccccn1` [Example 34, {(S)-1-[(S)-1-{(S)-1-Benzyl-2-oxo-2-[(pyridin-2-ylmethyl)-carbamoyl]-ethylcarbamoyl}-2-(1H-indol-3-yl)-ethylcarbamoyl]-ethyl}-carbamic acid benzyl ester], the IC50 at β5c is 1090 nM; at β1c, 13500 nM; against β1i it was 589 nM; on β5i, 10 nM; with β2c/2i, > 20000 nM. Besides, in experiment [1], a half-maximal response (EC50) required 1160 nM.

As for `COc1ccc(C[C@H](NC(=O)[C@H](C)NC(=O)CN2CCOc3ccccc32)C(=O)N[C@@H](Cc2ccccc2)C(=O)C(=O)NCc2ccccc2)cc1` [Example 35, (S)—N-Benzyl-3-[(S)-2-[(S)-2-(2-2,3-dihydro-benzo[1,4]oxazin-4-yl-acetylamino)-propionylamino]-3-(4-methoxy-phenyl)-propionylamino]-2-oxo-4-phenyl-butyramide], the half-inhibitory concentration (IC50) was 261 nM on β5c; 13400 nM at β1c; 395 nM at β1i; 4 nM at β5i; > 20000 nM in the experiment on β2c/2i. The compound further gave an EC50 in experiment [1] of 615 nM.

With `CC(C)C[C@H](NC(=O)[C@H](C)NC(=O)OCc1ccccc1)C(=O)N[C@@H](Cc1ccccc1)C(=O)C(=O)NCc1ccccc1` [Example 36, {(S)-1-[(S)-1-((S)-1-Benzyl-2-benzylcarbamoyl-2-oxo-ethylcarbamoyl)-3-methyl-butylcarbamoyl]-ethyl}-carbamic acid benzyl ester], the IC50 is 973 nM against β5c; > 20000 nM against β1c; 359 nM against β1i; 62 nM at β5i; > 20000 nM in the experiment on β2c/2i. For the same compound, the response in experiment [1] was half-maximal at 2800 nM (EC50).

As for `CC(C)C[C@H](NC(=O)[C@H](C)NC(=O)c1ccnn1C)C(=O)N[C@@H](Cc1ccccc1)C(=O)C(=O)NCc1ccccc1` [Example 37, 2-Methyl-2H-pyrazole-3-carboxylic acid {(S)-1-[(S)-1-((S)-1-benzyl-2-benzylcarbamoyl-2-oxo-ethylcarbamoyl)-3-methyl-butylcarbamoyl]-ethyl}-amide], the half-maximal inhibitory concentration (IC50) against β5c was 4440 nM; on β1c, > 20000 nM; against β1i, 1080 nM; at β5i, 234 nM; in the experiment with β2c/2i it was > 20000 nM. This compound also returned an EC50 in experiment [1] of 5100 nM.
